# Experimental data as given in US10611740B2, “Aryl dihydro-2H-benzo[b][1,4]oxazine sulfonamide and related compounds for use as agonists of RORγ and the treatment of disease” (Lycera Corporation, priority 2015, dated 2020).
# Assays:
# RORγ-LBD = target: T1, RORγ-LBD (Homo sapiens, UniProt P51449); assay: RORγ-Ligand Binding Domain (LBD) TR-FRET Assay; type: biochemical;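 as to TR-FRET Assay Max Response: 665/615 nm ratio relative to signal without ursolic acid or compound set at 100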
# T1 construct: made in house; host or cells: SF9 cells (baculovirus)
# T1 sequence (P51449 269-508 limits assumed): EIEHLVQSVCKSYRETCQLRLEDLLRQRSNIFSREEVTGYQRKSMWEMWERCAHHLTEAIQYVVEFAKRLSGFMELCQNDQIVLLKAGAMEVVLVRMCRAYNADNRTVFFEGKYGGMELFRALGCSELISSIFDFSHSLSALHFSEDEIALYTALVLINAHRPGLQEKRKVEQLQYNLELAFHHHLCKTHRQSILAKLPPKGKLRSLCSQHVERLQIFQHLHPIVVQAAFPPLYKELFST
# Summary of the method: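 Lysate from SF9 cells expressing His-RORγ-LBD is diluted to about 3 nM final in 50 mM Tris pH 7.0 assay buffer. A biotin-tagged SRC1 LXXLL peptide goes in at 200 nM final, plus ursolic acid at 2 μM final. Test compounds carry 1% DMSO final; signal read by TR-FRET.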
# Gal4-RORγ-LBD = target: T2, Gal4-RORγ-LBD (Homo sapiens, UniProt P51449); assay: Gal4-RORγ Luciferase Reporter Assay in HEK-293T Cells; type: cell-based; details: HEK-293 cells
# T2 construct: expressed in transfected cells; host or cells: HEK-293 cells (pcDNA3.1neo plasmid)
# T2 sequence (P51449 269-508 limits assumed): T1 sequence (P51449 269-508 limits assumed)
# Summary of the method: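 In transfected HEK-293 cells (Gal4-RORγ-LBD, Gal4-luciferase), test agents with 2 μM ursolic acid were incubated overnight at 37 °C before luminescent detection. Values are relative to the ursolic-acid-free, compound-free signal (100).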
# [1] = luciferase reporter, with 2 μM ursolic acid
Compound,EC50 (RORγ-LBD) [nM],TR-FRET Assay Max Response (RORγ-LBD),EC50 (Gal4-RORγ-LBD; 2 μM ursolic acid) [nM],Gal4-RORγ Assay Max Response (Gal4-RORγ-LBD; 2 μM ursolic acid),EC50 (Gal4-RORγ-LBD; [1]) [nM],Gal4-RORγ Assay Max Response (Gal4-RORγ-LBD; [1])
"COc1cc(Cl)cc(-c2ccc3c(c2)N(S(=O)(=O)c2cccc(C(F)(F)F)c2)C[C@H](CC(C)(C)C(=O)O)O3)c1 [Compound 32AH, (S)-3-(6-(3-chloro-5-methoxy-phenyl)-4-((3-(trifluoromethyl)-phenyl)sulfonyl)-3,4-dihydro-2H-benzo[b][1,4]oxazin-2-yl)-2,2-dimethylpropanoic acid]",< 500,*** (The symbol “***” indicates a value in the range of greater than 150 to 200),< 500,** (The symbol “**” indicates a value in the range of greater than 90 to 150),–,–
"CC(C)(C[C@H]1CN(S(=O)(=O)c2cccc(C(F)(F)F)c2)c2cc(-c3cc(F)cc(Cl)c3F)ccc2O1)C(=O)O [Compound 32AI, (S)-3-(6-(3-chloro-2,5-difluoro-phenyl)-4-((3-(trifluoromethyl)-phenyl)sulfonyl)-3,4-dihydro-2H-benzo[b][1,4]oxazin-2-yl)-2,2-dimethylpropanoic acid]",< 500,*** (The symbol “***” indicates a value in the range of greater than 150 to 200),< 500,** (The symbol “**” indicates a value in the range of greater than 90 to 150),–,–
"COc1cc(S(=O)(=O)N2C[C@H](CCC(C)(C)C(=O)O)Oc3ccc(-c4cccc(C(F)(F)F)n4)cc32)ccc1F [Compound 32AJ, (S)-4-(4-((4-fluoro-3-methoxy-phenyl)sulfonyl)-6-(6-(trifluoro-methyl)pyridin-2-yl)-3,4-dihydro-2H-benzo[b][1,4]oxazin-2-yl)-2,2-dimethylbutanoic acid]",< 500,** (The symbol “**” indicates a value in the range of greater than 90 to 150),< 500,** (The symbol “**” indicates a value in the range of greater than 90 to 150),–,–
"CC(C)(C[C@H]1CN(S(=O)(=O)c2cccc(C(F)(F)F)c2)c2cc(-c3cccc(C(F)F)n3)ccc2O1)C(=O)O [Compound 32AK, (S)-3-(6-(6-(difluoromethyl)-pyridin-2-yl)-4-((3-(trifluoro-methyl)phenyl)sulfonyl)-3,4-dihydro-2H-benzo[b][1,4]oxazin-2-yl)-2,2-dimethylpropanoic acid]",< 500,** (The symbol “**” indicates a value in the range of greater than 90 to 150),< 500,* (The symbol “*” indicates a value in the range of 25 to 90),–,–
"CC(C)(C[C@H]1CN(S(=O)(=O)c2cccc(C(F)(F)F)c2)c2cc(-c3cccc(C(F)F)c3)ccc2O1)C(=O)O [Compound 32AL, (S)-3-(6-(3-(difluoromethyl)-phenyl)-4-((3-(trifluoromethyl)-phenyl)sulfonyl)-3,4-dihydro-2H-benzo[b][1,4]oxazin-2-yl)-2,2-dimethylpropanoic acid]",< 500,** (The symbol “**” indicates a value in the range of greater than 90 to 150),< 500,** (The symbol “**” indicates a value in the range of greater than 90 to 150),–,–
"CC(C)(C[C@@H]1CN(S(=O)(=O)c2cccc(C(F)(F)F)c2)c2cc(-c3cc(F)cc(Cl)c3F)ccc2O1)C(=O)O [Compound 32AO, (R)-3-(6-(3-chloro-2,5-difluoro-phenyl)-4-((3-(trifluoromethyl)-phenyl)sulfonyl)-3,4-dihydro-2H-benzo[b][1,4]oxazin-2-yl)-2,2-dimethylpropanoic acid]",< 500,** (The symbol “**” indicates a value in the range of greater than 90 to 150),500 to 5000,* (The symbol “*” indicates a value in the range of 25 to 90),–,–
"Cc1ccc(Cl)cc1-c1ccc2c(c1)N(S(=O)(=O)c1cccc(C(F)(F)F)c1)C[C@H](CC(C)(C)C(=O)O)O2 [Compound 32AR, (S)-3-(6-(5-chloro-2-methyl-phenyl)-4-((3-(trifluoromethyl)-phenyl)sulfonyl)-3,4-dihydro-2H-benzo[b][1,4]oxazin-2-yl)-2,2-dimethylpropanoic acid]",< 500,** (The symbol “**” indicates a value in the range of greater than 90 to 150),< 500,** (The symbol “**” indicates a value in the range of greater than 90 to 150),–,–
"Cc1cc(C)cc(-c2ccc3c(c2)N(S(=O)(=O)c2cccc(C(F)(F)F)c2)C[C@H](CC(C)(C)C(=O)O)O3)c1 [Compound 32AS, (S)-3-(6-(3,5-dimethylphenyl)-4-((3-(trifluoromethyl)phenyl)-sulfonyl)-3,4-dihydro-2H-benzo[b][1,4]oxazin-2-yl)-2,2-dimethylpropanoic acid]",< 500,** (The symbol “**” indicates a value in the range of greater than 90 to 150),< 500,** (The symbol “**” indicates a value in the range of greater than 90 to 150),–,–
"Cc1ccc(C)c(-c2ccc3c(c2)N(S(=O)(=O)c2cccc(C(F)(F)F)c2)C[C@H](CC(C)(C)C(=O)O)O3)c1 [Compound 32AT, (S)-3-(6-(2,5-dimethylphenyl)-4-((3-(trifluoromethyl)phenyl)-sulfonyl)-3,4-dihydro-2H-benzo[b][1,4]oxazin-2-yl)-2,2-dimethylpropanoic acid]",< 500,** (The symbol “**” indicates a value in the range of greater than 90 to 150),< 500,** (The symbol “**” indicates a value in the range of greater than 90 to 150),–,–
"CC(C)(C[C@H]1CN(S(=O)(=O)c2cccc(C(F)(F)F)c2)c2cc(-c3c(Cl)cccc3Cl)ccc2O1)C(=O)O [Compound 32AU, (S)-3-(6-(2,6-dichlorophenyl)-4-((3-(trifluoromethyl)phenyl)-sulfonyl)-3,4-dihydro-2H-benzo[b][1,4]oxazin-2-yl)-2,2-dimethylpropanoic acid]",< 500,** (The symbol “**” indicates a value in the range of greater than 90 to 150),< 500,** (The symbol “**” indicates a value in the range of greater than 90 to 150),–,–
"CC(C)(C[C@H]1CN(S(=O)(=O)c2cccc(C(F)(F)F)c2)c2cc(-c3cc(F)ccc3C(F)(F)F)ccc2O1)C(=O)O [Compound 32AV, (S)-3-(6-(5-fluoro-2-(trifluoro-methyl)phenyl)-4-((3-(trifluoro-methyl)phenyl)sulfonyl)-3,4-dihydro-2H-benzo[b][1,4]oxazin-2-yl)-2,2-dimethylpropanoic acid]",< 500,** (The symbol “**” indicates a value in the range of greater than 90 to 150),< 500,** (The symbol “**” indicates a value in the range of greater than 90 to 150),–,–
"CC(C)(C[C@H]1CN(S(=O)(=O)c2cccc(C(F)(F)F)c2)c2cc(-c3cc(Cl)cc(F)c3Cl)ccc2O1)C(=O)O [Compound 32AW, (S)-3-(6-(2,5-dichloro-3-fluoro-phenyl)-4-((3-(trifluoromethyl)-phenyl)sulfonyl)-3,4-dihydro-2H-benzo[b][1,4]oxazin-2-yl)-2,2-dimethylpropanoic acid]",< 500,** (The symbol “**” indicates a value in the range of greater than 90 to 150),< 500,** (The symbol “**” indicates a value in the range of greater than 90 to 150),–,–
"Cc1cccc(-c2ccc3c(c2)N(S(=O)(=O)c2cccc(C(F)(F)F)c2)C[C@H](CC(C)(C)C(=O)O)O3)c1Cl [Compound 32AX, (S)-3-(6-(2-chloro-3-methyl-phenyl)-4-((3-(trifluoromethyl)-phenyl)sulfonyl)-3,4-dihydro-2H-benzo[b][1,4]oxazin-2-yl)-2,2-dimethylpropanoic acid]",< 500,** (The symbol “**” indicates a value in the range of greater than 90 to 150),< 500,** (The symbol “**” indicates a value in the range of greater than 90 to 150),–,–
"Cc1c(Cl)cccc1-c1ccc2c(c1)N(S(=O)(=O)c1cccc(C(F)(F)F)c1)C[C@H](CC(C)(C)C(=O)O)O2 [Compound 32AZ, (S)-3-(6-(3-chloro-2-methyl-phenyl)-4-((3-(trifluoromethyl)-phenyl)sulfonyl)-3,4-dihydro-2H-benzo[b][1,4]oxazin-2-yl)-2,2-dimethylpropanoic acid]",< 500,** (The symbol “**” indicates a value in the range of greater than 90 to 150),< 500,** (The symbol “**” indicates a value in the range of greater than 90 to 150),–,–
"COc1cccc(-c2ccc3c(c2)N(S(=O)(=O)c2cccc(C(F)(F)F)c2)C[C@H](CC(C)(C)C(=O)O)O3)c1 [Compound 32B, (S)-3-(6-(3-methoxyphenyl)-4-((3-(trifluoromethyl)phenyl)sulfonyl)-3,4-dihydro-2H-benzo[b][1,4]oxazin-2-yl)-2,2-dimethylpropanoic acid]",< 500,*** (The symbol “***” indicates a value in the range of greater than 150 to 200),–,–,< 500,** (The symbol “**” indicates a value in the range of greater than 90 to 150)
